Blank lines part the entries; values can stand above or below the molecule they belong to.
What was measured:
[1] = 0 °C (SOPC Tc 6 °C, gel state), CLSM observation; cited from earlier work
dermal fibroblasts = conditions: cited from earlier work
Excerpt: Hoffmeister Effect of solute[12] is one of the known phenomena to control the hydration level of self-assembled amphiphiles. Chaotropic solutes (water structure breakers) such as sodium thiocyanate (NaSCN) and 1,3-butanediol (1,3-BG) make the membrane curvature positive. On the other hand, kosmotropic solutes (water structure maker ...

[2] = Leakage of internalized FITC-R8 and rhodamine from GUV; conditions: EPC GUV, L/P = 1000, 10 min, 37 °C, different osmotic pressures, with or without FITC-R8 in outer medium, fluorescence Ex 555/Em 575 nm, n = 5
Description: GUVs were prepared by the freeze-melting and natural swelling method[23]. Lipids dissolved in chloroform were placed into the vials, and then the solvent was evaporated. After being dried in vacuo for 16 h in the dark, lipid films were hydrated with 0.01 mg/mL of Rho/3 M KCl solution to give 20 mM lipid concentration. […] The suspension was vortexed for 1 min. This step (from freezing to vortexing) was repeated six times. It was transferred to a dialysis membrane (UC-8-32-25; Viskase Co. Ltd., Chicago, USA) and dialyzed against 20% PBS for at least two days at room temperature and, the dialysis solution was daily replaced by a new one. In this study, 20% PBS is defined as ‘isotonic solution’ and PBS solution at concentrations less than 20% as ‘hypotonic solution’ and at higher than 20% as ‘hypertonic solution’.
Penetration assay of CPP into GUV was conducted in the same manner previously reported[23]. […] The ratio of penetrated FITC-R8 and Rho leakage ratio was calculated using the following equations:1 P=A/U×100 2 L=IL-Rho/IL-Rho+INL-Rho×100
In Eq. (1), P is the penetrated ratio of FITC-R8 ratio, A is the amount of penetrated FITC-R8 into GUV calculated using the standard curve, and U is the amount of FITC-R8 used in this experiment. In Eq. (2), L is the leaked Rho ratio, and IL-Rho and INL-Rho are the fluorescence intensities of leaked and non-leaked Rho.

[3] = set-up: method as in doi:10.1246/cl.2012.1078; conditions: under the tested conditions, regardless of osmotic pressure change; cited from earlier work

Molecule: N=C(N)NCCC[C@H](NC(=O)[C@H](CCCNC(=N)N)NC(=O)[C@H](CCCNC(=N)N)NC(=O)[C@H](CCCNC(=N)N)NC(=O)[C@H](CCCNC(=N)N)NC(=O)[C@H](CCCNC(=N)N)NC(=O)[C@H](CCCNC(=N)N)NC(=O)[C@H](CCCNC(=N)N)NC(=O)CCCNC(=S)Nc1ccc2c(c1)C(=O)OC21c2ccc(O)cc2Oc2cc(O)ccc21)C(=O)O [FITC-R8]
cytolysis to SOPC GUV [1]: no cytolysis | cell viability with chaotropic solutes (NaSCN, 1,3-BG) (dermal fibroblasts): without interfering with cell viability

leakage of rhodamine pre-encapsulated in the GUV [2]: very low and consistent
Molecule: CCN(CC)c1ccc2c(-c3ccccc3C(=O)O)c3ccc(=[N+](CC)CC)cc-3oc2c1 [rhodamine, Rhodamine B]

Molecule: fluorescein isothiocyanate [FITC]
permeation through the membrane into the cytosol [3]: could not permeate through the membrane

From paper PMC7794472, “Direct entry of cell-penetrating peptide can be controlled by maneuvering the membrane curvature” (Scientific Reports, 2021)
